For twelve compounds, IC50 results are on record in patent US10329310B2, “Arginase inhibitors and their therapeutic applications” (ONCOARENDI THERAPEUTICS S.A., priority 2014, dated 2019).

Where a name gives a salt, the structure may show the parent alone.

This assay has as its target recombinant human arginases 1 and 2. The assay is described as follows: Human Arginase Activity Assay (urea measurement, colorimetric). It counts as biochemical. Particulars: 37° C., 60 min, isoform not given, read-out: Activity Class (IC50). As to the method: Human Arginase Activity Assay
The assay was run in the 96-well plate format, each reaction in the total volume of 100 ul. The assay is based on urea measurement, which is a product of L-arginine enzymatic degradation. (Baggio et al. J. Pharmacol. Exp. Ther. 1999, 290, 1409-1416). The color product is developed by adding a mixture of reagent A (10 mM o-phthaldialdehyde and 0.4% polyoxyethylene (23) lauryl ether (w/v) in 1.8 M sulfuric acid) and reagent B (1.3 mM primaquine diphosphate, 0.4% polyoxyethylene (23) lauryl ether (w/v), and 130 mM boric acid in 3.6 M sulfuric acid) in equal proportions. The absorbance for each well was measured at 530 nm and was referred to the concentration curve determined using urea as a standard.
Briefly, to each well of a 96-well microtiter plate 40 μL of enzyme, 50 μL of the test compound solution, and 10 μL of enzyme substrate solution (L-arginine+manganese chloride) was added. For positive control, only the enzyme and substrate was added, the negative controls contained only manganese chloride. After incubating the microtiter plate at 37° C. for 60 min, 150 μL of a urea reagent was added to each well to stop the reaction. After quenching the reaction mixture, the plate was left for 20 min at room temperature in order to allow color development. Absorbance was measured with Envision® Reader (Perkin-Elmer) (λ=530 nm).
The IC50 values were calculated using GraphPad Prism and divided into the following classes: […]
Consider `NC(CCCCB(O)O)(C(=O)O)C1CCN(S(N)(=O)=O)CC1` (stereo not drawn) [Example 14, 2-Amino-6-borono-2-(1-sulfamoylpiperidin-4-yl)hexanoic acid hydrochloride], for which the IC50 lay in the range of 1000 to 10000 nM.

Take `NC(CCCCB(O)O)(C(=O)O)C1CCN(S(=O)(=O)NCc2ccc(C(F)(F)F)cc2)CC1` (stereo not drawn) [Example 16, 2-Amino-6-borono-2-(1-(N-(4-(trifluoromethyl)benzyl)sulfamoyl)piperidin-4-yl)hexanoic acid hydrochloride]: the IC50 was 1000 to 10000 nM.

`CNC(CCCCB(O)O)(CNC(=N)N)C(=O)O` (stereo not drawn) [Example 9, 6-Borono-2-(guanidinomethyl)-2-(methylamino)hexanoic acid dihydrochloride]: the IC50 was in the range of 1 to 100 nM.

As for `CN(C)S(=O)(=O)N1CCC(C(N)(CCCCB(O)O)C(=O)O)CC1` (stereo not drawn) [Example 15, 2-Amino-6-borono-2-(1-(N,N-dimethylsulfamoyl)piperidin-4-yl)hexanoic acid hydrochloride], the IC50 lay in the range of 10000 to 100000 nM.

Take `CN(C)S(=O)(=O)NCC(N)(CCCCB(O)O)C(=O)O` (stereo not drawn) [Example 4, 2-Amino-6-borono-2-(((N,N-dimethylsulfamoyl)amino)methyl)hexanoic acid hydrochloride]: the IC50 was 100 to 1000 nM.

With `CNS(=O)(=O)NCC(N)(CCCCB(O)O)C(=O)O` (stereo not drawn) [Example 6, hydrochloride], the IC50 is 100 to 1000 nM.

In the case of `NC(CCCCB(O)O)(CNS(=O)(=O)NCc1ccccc1)C(=O)O` (stereo not drawn) [Example 5, hydrochloride], the IC50 lay in the range of 1000 to 10000 nM.

As for `CNC(CCCCB(O)O)(CNS(N)(=O)=O)C(=O)O` (stereo not drawn) [Example 8, 6-Borono-2-(methylamino)-2-((sulfamoylamino)methyl)hexanoic acid hydrochloride], the IC50 lay in the range of 100 to 1000 nM.

Take `NC(=O)NCC(N)(CCCCB(O)O)C(=O)O` (stereo not drawn) [Example 3, 2-Amino-6-borono-2-(ureidomethyl)hexanoic acid hydrochloride]: the IC50 lay in the range of 10000 to 100000 nM.

`NC(CCCCB(O)O)(CCNS(N)(=O)=O)C(=O)O` (stereo not drawn) [Example 12, hydrochloride]: the IC50 was 1000 to 10000 nM.

Consider `CNC(=N)NCC(N)(CCCCB(O)O)C(=O)O` (stereo not drawn) [Example 7, 2-Amino-6-borono-2-((3-methylguanidino)methyl)hexanoic acid hydrochloride], for which the IC50 lay in the range of 100 to 1000 nM.

Consider `NC(CCCCB(O)O)(CCS(N)(=O)=O)C(=O)O` (stereo not drawn) [Example 10, 2-Amino-6-borono-2-(2-sulfamoylethyl)hexanoic acid hydrochloride], for which the IC50 fell in the range of 1000 to 10000 nM.
